Experimental data reported in ChEMBL document CHEMBL3046128, “Sustainable synthesis of flavonoid derivatives, QSAR study and insecticidal activity against the fall armyworm, Spodoptera frugiperda (Lep.: Noctuidae)” (2010).

Test system: Spodoptera frugiperda
Experiment: Insecticidal activity against first-instar larval-stage of Spodoptera frugiperda (fall armyworm) strain corn in compound-pretreated corn leaves assessed as mortality rate at 2000 mg/kg
Assay type: functional

| SMILES | LT50 [h] | log10LT50 |
| --- | --- | --- |
| O=c1cc(-c2ccccc2)oc2ccc(Br)cc12 [6-BROMOFLAVONE] | 43.86 | 1.642 |
| O=c1cc(-c2ccccc2)oc2ccc(Cl)cc12 [6-CHLOROFLAVONE] | 53.36 | 1.727 |
| Cc1ccc2oc(-c3ccccc3)cc(=O)c2c1 [6-METHYLFLAVONE] | 93 | 1.968 |
| O=c1cc(-c2ccccc2)oc2cc(Br)ccc12 [7-BROMOFLAVONE] | 89.73 | 1.953 |
| O=c1cc(-c2ccccc2)oc2cc(Cl)ccc12 [7-CHLOROFLAVONE] | 29.33 | 1.467 |
| O=c1cc(-c2ccccc2)oc2cc(F)ccc12 [7-FLUOROFLAVONE] | 63.76 | 1.805 |
| O=c1cc(-c2ccccc2)oc2cc(O)ccc12 [7-HYDROXYFLAVONE] | 106.94 | 2.029 |
| COc1ccc2c(=O)cc(-c3ccccc3)oc2c1 [7-METHOXYFLAVONE] | 114.38 | 2.058 |
| Cc1ccc2c(=O)cc(-c3ccccc3)oc2c1 [7-METHYLFLAVONE] | 105.46 | 2.023 |
| O=c1ccoc2ccccc12 [CHROMONE] | 55.42 | 1.744 |
| O=C1CC(c2ccccc2)Oc2ccccc21 (stereo not given) [FLAVANONE] |  | 1.656 |
| O=c1cc(-c2ccccc2)oc2ccccc12 [FLAVONE] | 51.19 | 1.709 |
| O=c1c2ccccc2oc2ccccc12 [XANTHONE] | 53.78 | 1.731 |
